What was measured:
[1] = test system: bilirubin oxidase (BOD), coated BOD 4 (Example 1, coated at 4° C.)
Procedure: (§1) First, 40 mg of BOD and 1 mg of ethylenediaminetetraacetic acid (EDTA) used as a stabilizer were dissolved in 3.8 mL of a 100 mM boric acid solution (pH 9.3). Subsequently, 6.0 mg of N-acryloxysuccinimide was dissolved in 0.2 mL of DMSO, and the solution was then gradually added to the boric acid buffer. The resulting solution was allowed to react at 4° C. for 10 hours. Subsequently, the resulting acryloylated BOD in which acryloyl groups were introduced was purified using a Sephadex G25 column at 4° C.
(§2) Subsequently, at 4° C., a mixture prepared by mixing acrylamide and N,N′-methylenebisacrylamide in a molar ratio of 10:1 was dissolved in 0.5 mL of deionized water free of oxygen. The solution was homogeneously added to the above acryloylated BOD solution, and the resulting solution was allowed to react for 60 minutes. The reaction was further performed in the presence of nitrogen at 4° C. for 60 minutes. Finally, the coated BOD (hereinafter referred to as “coated BOD 3”) was purified using a Sephadex G75 column.
(§3) The Michaelis constants (KM) and the reaction rate constants (kcat) of coated BOD 3, coated BOD 4, free BOD 2, and free BOD 3 prepared above were measured under the conditions shown in Table 4. […] The amount of protein of each BOD sample was determined by BCA colorimetric protein assay from a calibration curve of BSA used as a standard protein.

[2] = test system: bilirubin oxidase (BOD), coated BOD 3 (Example 1, coated at 4° C.)
Procedure: as §1, §2, §3

[3] = test system: bilirubin oxidase (BOD), free BOD 1 (not coated, stored at 4° C.); details: oxygen saturation
Procedure: As a control, BOD on which coating was not performed and which was stored at 4° C. for the same period of time as that is necessary for the process of preparing coated BOD 2 (hereinafter referred to as “free BOD 1”) was used.
as §3, with “1,” for “3,”, “coated” for “coated BOD 4, free”, “1” for “3”, “1 below.” for “4.”, “bicinchoninic acid (BCA)” for “BCA”, “bovine serum albumin (BSA)” for “BSA”

[4] = test system: bilirubin oxidase (BOD), free BOD 3 (not coated, stored at 4° C.); details: oxygen saturation
Procedure: (§4) As controls, BOD on which coating was not performed and which was stored at 25° C. for the same period of time as that is necessary for the process of preparing coated BOD 4 (hereinafter referred to as “free BOD 2”), and BOD on which coating was not performed and which was stored at 4° C. for the same period of time as that is necessary for the process of preparing coated BOD 4 (hereinafter referred to as “free BOD 3”) were used.
as §3

[5] = test system: bilirubin oxidase (BOD), free BOD 2 (not coated, stored at 25° C.); details: ABTS, pH 7.0, 25° C., oxygen saturation
Procedure: as §4, §3

[6] = test system: bilirubin oxidase (BOD), coated BOD 1 (Reference Example)
Procedure: (§5) The solution was homogeneously added to the above acryloylated BOD solution, and the resulting solution was allowed to react for 60 minutes.
as §3, with “1,” for “3,”, “coated” for “coated BOD 4, free”, “1” for “3”, “1 below.” for “4.”, “bicinchoninic acid (BCA)” for “BCA”, “bovine serum albumin (BSA)” for “BSA”

[7] = test system: bilirubin oxidase (BOD), coated BOD 2 (Reference Example)
Procedure: as §5
as §3, with “1,” for “3,”, “coated” for “coated BOD 4, free”, “1” for “3”, “1 below.” for “4.”, “bicinchoninic acid (BCA)” for “BCA”, “bovine serum albumin (BSA)” for “BSA”

## CCn1c(=NN=c2sc3cc(S(=O)(=O)O)ccc3n2CC)sc2cc(S(=O)(=O)O)ccc21.N.N [ABTS, 2,2′-Azino-bis(3-ethylbenzothiazoline-6-sulfonic acid) diammonium salt]
[1]; coated BOD 4, ABTS, pH 7.0, 25° C., oxygen saturation
  kcat: 52.7 s⁻¹
[1]; coated BOD 4 vs free BOD 2 and free BOD 3
  Michaelis constant (KM) compared with free BOD 2 and free BOD 3: about twice
[1]; read-out: KM,ABTS, coated BOD 4, 3.30 nM, ABTS 0.05 to 7 mM, pH 7.0 sodium phosphate, 25° C., oxygen saturation, 730 nm
  Km: 670 µM
[2]; coated BOD 3, ABTS, pH 7.0, 25° C., oxygen saturation
  kcat: 52.5 s⁻¹
[2]; coated BOD 3 vs free BOD 2 and free BOD 3
  Michaelis constant (KM) compared with free BOD 2 and free BOD 3: about twice
[2]; read-out: KM,ABTS, coated BOD 3, 1.09 nM, ABTS 0.05 to 7 mM, pH 7.0 sodium phosphate, 25° C., oxygen saturation, 730 nm
  Km: 570 µM
[3]; free BOD 1, ABTS, pH 7.0, 25° C.
  kcat: 234 s⁻¹
[3]; read-out: KM,ABTS, free BOD 1, 712 pM, ABTS 0.05 to 10 mM, pH 7.0 sodium phosphate, 25° C., 730 nm
  Km: 307 µM
[4]; free BOD 3, ABTS, pH 7.0, 25° C.
  kcat: 216 s⁻¹
[4]; read-out: KM,ABTS, free BOD 3, 0.629 nM, ABTS 0.05 to 7 mM, pH 7.0 sodium phosphate, 25° C., 730 nm
  Km: 358 µM
[5]
  kcat: 158 s⁻¹
[6]; coated BOD 1, ABTS, pH 7.0, 25° C., oxygen saturation
  kcat: 10.2 s⁻¹
[6]; coated BOD 1 vs free BOD 1
  Michaelis constant (KM) compared with free BOD 1: no significant difference
[6]; read-out: KM,ABTS, coated BOD 1, 2.05 nM, ABTS 0.05 to 10 mM, pH 7.0 sodium phosphate, 25° C., oxygen saturation, 730 nm
  Km: 383 µM
[7]; coated BOD 2, ABTS, pH 7.0, 25° C., oxygen saturation
  kcat: 1.92 s⁻¹
[7]; coated BOD 2 vs free BOD 1
  Michaelis constant (KM) compared with free BOD 1: no significant difference
[7]; read-out: KM,ABTS, coated BOD 2, 19.7 nM, ABTS 0.05 to 10 mM, pH 7.0 sodium phosphate, 25° C., oxygen saturation, 730 nm
  Km: 405 µM
